Assay results reported in ChEMBL document CHEMBL2074241, “Characterization of binding properties to human P-glycoprotein: development of a [3H]verapamil radioligand-binding assay” (J Pharmacol Exp Ther, 1999).

Target: ATP-dependent translocase ABCB1 (Homo sapiens, UniProt P08183)
Test: TP_TRANSPORTER: inhibition of Verapamil binding in membranes from Vinblastine-induced Caco-2 cells
Type: functional, cell membranes, Membrane

Sequence of ATP-dependent translocase ABCB1 (P08183 whole entry): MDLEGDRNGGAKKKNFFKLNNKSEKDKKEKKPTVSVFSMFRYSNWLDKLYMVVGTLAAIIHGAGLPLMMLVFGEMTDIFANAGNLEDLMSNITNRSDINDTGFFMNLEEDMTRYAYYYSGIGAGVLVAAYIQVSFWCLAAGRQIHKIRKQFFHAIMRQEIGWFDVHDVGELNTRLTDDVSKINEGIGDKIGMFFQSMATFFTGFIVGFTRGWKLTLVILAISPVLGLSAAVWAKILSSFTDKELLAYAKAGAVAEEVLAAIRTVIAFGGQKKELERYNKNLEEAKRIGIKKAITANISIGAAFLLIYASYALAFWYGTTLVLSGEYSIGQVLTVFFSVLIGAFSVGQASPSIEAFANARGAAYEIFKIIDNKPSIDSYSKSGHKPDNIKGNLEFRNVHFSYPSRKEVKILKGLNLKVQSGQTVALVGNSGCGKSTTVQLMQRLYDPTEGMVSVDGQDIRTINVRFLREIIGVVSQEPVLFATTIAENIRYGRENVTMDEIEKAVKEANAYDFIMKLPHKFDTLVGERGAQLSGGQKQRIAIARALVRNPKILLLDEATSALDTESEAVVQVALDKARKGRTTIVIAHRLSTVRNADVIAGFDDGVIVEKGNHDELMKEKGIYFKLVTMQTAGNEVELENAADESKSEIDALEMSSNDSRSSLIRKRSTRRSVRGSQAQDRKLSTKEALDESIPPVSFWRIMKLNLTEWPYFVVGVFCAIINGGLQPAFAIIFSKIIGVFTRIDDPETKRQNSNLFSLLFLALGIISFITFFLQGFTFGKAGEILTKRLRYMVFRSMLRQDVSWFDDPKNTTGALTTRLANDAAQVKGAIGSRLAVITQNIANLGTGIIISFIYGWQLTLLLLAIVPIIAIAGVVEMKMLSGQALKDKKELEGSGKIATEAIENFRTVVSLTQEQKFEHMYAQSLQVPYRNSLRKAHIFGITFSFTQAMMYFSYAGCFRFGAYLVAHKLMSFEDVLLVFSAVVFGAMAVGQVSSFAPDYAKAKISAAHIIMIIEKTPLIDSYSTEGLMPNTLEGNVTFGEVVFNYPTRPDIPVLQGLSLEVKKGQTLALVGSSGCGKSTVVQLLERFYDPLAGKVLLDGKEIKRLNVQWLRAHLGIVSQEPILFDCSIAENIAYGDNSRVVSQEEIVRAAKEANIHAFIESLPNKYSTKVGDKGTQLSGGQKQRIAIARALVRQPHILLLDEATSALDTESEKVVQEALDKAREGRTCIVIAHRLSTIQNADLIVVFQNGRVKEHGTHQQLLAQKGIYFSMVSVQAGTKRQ

For `COC(=O)c1ccccc1-c1c2ccc(=N)cc-2oc2cc(N)ccc12` [RHODAMINE123], the Ki (read-out: Ki1) was 110 nM and the Ki (read-out: Ki2) was 3400 nM.

`CC[C@]1(O)C[C@H]2CN(CCc3c([nH]c4ccccc34)[C@@](C(=O)OC)(c3cc4c(cc3OC)N(C=O)[C@H]3[C@@](O)(C(=O)OC)[C@H](OC(C)=O)[C@]5(CC)C=CCN6CC[C@]43[C@@H]65)C2)C1` [VINCRISTINE] was tested, and the Ki (read-out: Ki1) was 470 nM and the Ki (read-out: Ki2) was 148000 nM.
